Values of other authors, collected in patent publication US7897820B2, “Process for preparing erianin” (Zhe Jiang Cell Biomedical Research Co., Ltd., priority 2005, dated 2011).

Legend:
tumor cell strain K256 = settings: among dihydrobibenzyls and phenanthrenes in Dendrobium chrysotoxum
microtubulin = settings: target is the microtubulin in the cell
[1] = test system: human leukemia HL-60 cells
[2] = compared with 5FU

COc1ccc(CCc2cc(OC)c(OC)c(OC)c2)cc1O [Erianin, 2-methoxyl-5-[2-(3,4,5-trimethoxyphenyl)]ethyl phenol]
inhibitory effect on the growth of tumor cell strain K256 (tumor cell strain K256): most active
effect on polymerizing of microtubulin (microtubulin): inhibit the polymerizing of microtubulin
inhibition of growth of human leukemia HL-60 cells [1]: significantly inhibited the growth
tumor inhibitory rate (liver cancer of mouse): 50.82%
side effect [2]: far lower then 5FU
